Paper PMC6941404, “Pigmentosins from Gibellula sp. as antibiofilm agents and a new glycosylated asperfuran from Cordyceps javanica” (Beilstein Journal of Organic Chemistry, 2019)
Values after ≈ are worked out from the molar mass of the structure shown. Where two headings read alike, the source gives them in different places.

Assays:
Bacillus subtilis DSM10 = experiment: Antimicrobial activity, broth microdilution MIC; format: cell-based; conditions: for MIC: read-out: Antimicrobial activity (MIC) BS
Experimental: (§1) To evaluate the biological effects of compounds 1–6, various assays were carried out. The antimicrobial activity of the isolated compounds against Bacillus subtilis DSM10, Escherichia coli DSM498, Candida tenuis MUCL29892, and Mucor plumbeus MUCL49355 was determined as described by Kuephadungphan and co-workers. The nematicidal activity against Caenorhabditis elegans was investigated using a microtiter plate assay according to Helaly and co-workers, while the cytotoxicity was tested against murine fibroblast (L929) and human HeLa (KB3.1) cell lines according to Chepkirui and co-workers.
Biological activity screening of compounds 1–6
Antimicrobial activity assay
The minimum inhibitory concentration (MIC) of compounds 1–6 was determined using the broth microdilution method according to Kuephadungphan et al.4 against B. subtilis DSM10, E. coli DSM498, C. tenuis MUCL29892 and M. plumbeus MUCL49355. Stock suspension of each bacterium and yeast (100 μL) was transferred to 100 mL of EBS medium and YM medium, respectively.
Suspensions of B. subtilis and C. tenuis were incubated on a rotary shaker at 30 °C for 18–24 h while E. coli was grown at 37 °C for 24 h. After incubation, the suspension was adjusted to a concentration of 6.7 × 10^5 cells/mL using a hemacytometer. The spore suspension of M. plumbeus was prepared at a concentration of 6.7 × 10^5 conidia/mL using YM medium. The determination of MIC was performed in a 96-well microtiter plate. The compounds dissolved in methanol at a concentration of 4.5 mg/mL (20 μL) were transferred to the first row of the plate. Standard antibiotics including ciprofloxacin (bacteria) and nystatin (yeast and fungus), and methanol were used as positive and negative controls, respectively. Inoculum suspension (280 μL) was added to the first row containing compounds and 150 μL were added to the rest. The solutions were then serially 2-fold diluted to 8 concentrations ranging from 2.34–300 μg/mL. Plates were incubated at 30 °C on a microplate-vibrating shaker for 24 h for bacteria and 48 h for yeast and filamentous fungus. […]
(§2) The assay was kindly conducted by Wera Collisi, Department of Microbial Drugs, Helmholtz Centre of Infection Research, Germany. The tested cell lines were cultured in EBM -2 (Lonza) sup plemented with 10% fetal bovine serum (Gibco) under 10% CO2 at 37 °C. A 60 µL of serial dilutions from an initial stock (1 mg/mL) of the test compounds in MeOH was added to 120 µL aliquots of a cell suspension (50,000 cells/mL) in 96-well microplates.
After incubation for five days, 20 µL of MTT in phosphate buffered saline (PBS) were added to give a final concentration of 0.5 mg/mL. The plates were further incubated for two hours. The precipitate

Cytotoxicity assay (MTT) = format: cell-based; conditions: human; HeLa cell line KB3.1; MTT, five days; NA = No activity; a = Proliferation inhibition, no altered or dead cells
Experimental: as §1
Biological activity screening of compounds 1–6 […]
as §2, with “The isolated compounds were tested for cytotoxic activity using the MTT (3 -(4,5-dimethylthiayol -2-yl)-2,5-diphenyltetrayolium bromide) method in 96 -well microtiter plates following the procedure previously described by Chepkirui et al.7 against th e cervix carcino ma cell line KB3.1 and the established mouse fibroblast cell line L929. The assay” for “The assay”
After incubation for five days, 20 µL of MTT in phosphate buffered saline (PBS) were added to give a final concentration of 0.5 mg/mL. The plates were further incubated for two hours. The precipitate […]
of formazan crystals was centrifuged and the supernatant was then discarded. Each well was washed with 100 µL of PBS and 100 µL of isopropanol containing 0.4% hydrochloric acid were subsequently added in order to get the residual dissolved. The plates were gently shaken for 20 min before the absorbance at 590 nm was measured using an ELISA microplate reader (Victor). The concentration, at which the growth of cells was inhibited to 50% of the control (IC50), was obtained from the dose - response curves. Methanol was used as negative control while epothilone A and B wer e used as positive controls for L929 and KB3.1 cell lines, respectively. […]
After incubation at 37 °C under shaking condition, the overnight cultures were adjusted to equal the turbidity of 0.5 McFarland standard using the assay medium. The assay was carried out in 96 -well tissue cultured -treated microplates (TPP®, Germany) for S. aureus and non-treated plates (Falcon®MicroTestTM, USA) for P. aeruginosa , in which 10 μ L of each compound (0.5 mg/m L) in six replicates were mixed together with 140 μ L of bacterial suspension. Methanol and CASO medium with and without 4% glucose were used as negative controls and tetracycline (100 μg/m L) as positive control. Plates were covered with a sterile adhesive porous paper (Kisker Biotech GmbH, Steinfurt, Germany) and incubated at 37 °C for 24 h.
After incubation, ba cterial biofilms were stained with 0.1% crystal violet solution (Sigma -Aldrich) following the protocol of O’Toole .9 Then, the biofilm was subsequently quantified using a microplate reader at 550 nm. […]
aeruginosa PA14 were further evaluated for their bacteriostatic and bactericidal activit ies. The assay was performed in the Bioscreen 100 -well Honeycomb plate according to the protocol described by Yuyama et al. 13 where the MIC values were determined. […]

B. subtilis = tested on: B. subtilis; set-up: method as in PMID 22889083; conditions: reported by Grove and co-workers; cited from earlier work
[1] = Bacillus subtilis DSM10, 24 h, range 2.34–300 μg/mL, NA = No activity

## COc1cc(O)c2c(O)c3c(cc2c1-c1c(OC)cc(O)c2c(O)c4c(cc12)CC(C)OC4=O)CC(C)OC3=O (stereo not drawn) [Pigmentosin A (1), pigmentosin A]
Bacillus subtilis DSM10; [1]
  Antimicrobial activity (MIC) BS: 12.5 mg/L
Bacillus subtilis DSM10; Bacillus subtilis, DSM10, 24 h
  MIC: 12.5 mg/L (≈ 22.9 µM)
Cytotoxicity assay (MTT)
  IC50: 17 mg/L (≈ 31.1 µM)
B. subtilis
  MIC against B. subtilis: 20 mg/L (≈ 36.6 µM)

## COc1cc(O)c2c(O)c3c(cc2c1-c1c(OC)cc(O)c2c(O)c4c(cc12)CC(CC(C)O)OC4=O)CC(C)OC3=O (stereo not drawn) [Pigmentosin B (2), pigmentosin B]
Bacillus subtilis DSM10; [1]
  Antimicrobial activity (MIC) BS: 100 mg/L
  MIC: 100 mg/L (≈ 169 µM)
